Results taken from US8802597B2, “Herbicidal pyrimidines” (E I du Pont de Nemours and Company, priority 2003, dated 2014).

What was measured:
Format in all cases: in vivo
[1] = test system: Surinam grass (Brachiaria decumbens); test: Test B pre/postemergence
How it was run: (§1)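 Following sowing, compounds in a surfactant-bearing non-phytotoxic solvent were applied preemergence; emerged plants 2 to 18 cm high got postemergence treatment concurrently. Evaluation: 13 to 15 days later, greenhouse, 0–100 visual scale.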

[2] = test system: barnyardgrass (Echinochloa crus-galli); test: Test B pre/postemergence
How it was run: as §1

[3] = test system: cocklebur (Xanthium strumarium); test: Test B pre/postemergence
How it was run: as §1

[4] = test system: corn (Zea mays); test: Test B pre/postemergence
How it was run: as §1

[5] = test system: crabgrass (Digitaria sanguinalis); test: Test B pre/postemergence
How it was run: as §1

[6] = test system: giant foxtail (Setaria faberii); test: Test B pre/postemergence
How it was run: as §1

[7] = test system: lambsquarters (Chenopodium album); test: Test B pre/postemergence
How it was run: as §1

[8] = test system: morningglory (Ipomoea coccinea); test: Test B pre/postemergence
How it was run: as §1

[9] = test system: pigweed (Amaranthus retroflexus); test: Test B pre/postemergence
How it was run: as §1

[10] = test system: velvetleaf (Abutilon theophrasti); test: Test B pre/postemergence
How it was run: as §1

[11] = test system: wheat (Triticum aestivum); test: Test B pre/postemergence
How it was run: as §1

[12] = test system: blackgrass (Alopecurus myosuroides); test: Test B postemergence; conditions: for Blackgrass plant response rating: 125 g ai/ha, scale 0 to 100 (0 no effect, 100 complete control); for Plant response rating, Blackgrass: 500 g ai/ha, scale 0 to 100
How it was run: as §1

[13] = test system: wild oat (Avena fatua); test: Test B postemergence; conditions: for Oat, Wild plant response rating: 125 g ai/ha, scale 0 to 100 (0 no effect, 100 complete control); for Plant response rating, Oat, Wild: 500 g ai/ha, scale 0 to 100
How it was run: as §1

[14] = test system: barnyardgrass (Echinochloa crus-galli); test: Test B flooded paddy test; conditions: Flood, 1000 g ai/ha; scale 0 (no effect) to 100 (complete control)
How it was run: (§2)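 Rice, umbrella sedge, duck salad and barnyardgrass grown to 2-leaf stage under flooded paddy conditions and treated with formulated test chemicals. Kept in greenhouse 13–15 days, then visually rated against untreated controls on a 0–100 scale (0 no effect, 100 complete control).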

[15] = test system: duck salad (Heteranthera limosa); test: Test B flooded paddy test; conditions: Flood, 1000 g ai/ha; scale 0 to 100
How it was run: as §2

[16] = test system: rice (Oryza sativa); test: Test B flooded paddy test; conditions: Flood, 1000 g ai/ha; scale 0 to 100
How it was run: as §2

[17] = test system: umbrella sedge (Cyperus difformis); test: Test B flooded paddy test; conditions: Flood, 1000 g ai/ha; scale 0 to 100
How it was run: as §2

[18] = Postemergence, 500 g ai/ha, scale 0 to 100
[19] = Preemergence, 125 g ai/ha, scale 0 to 100 (0 no effect, 100 complete control)
[20] = Preemergence, 500 g ai/ha, scale 0 to 100 (0 no effect, 100 complete control)
[21] = Postemergence, 125 g ai/ha, scale 0 to 100 (0 no effect, 100 complete control)

COC(=O)c1nc(-c2ccc(C(F)(F)F)cc2)nc(N)c1Cl [Compound 44]
Plant response rating, Surinam Grass [1, 18]: 50
Plant response rating, Surinam Grass [1, 19]: 40
Surinam Grass plant response rating [1, 20]: 60
Barnyardgrass plant response rating [2, 21]: 40
Plant response rating, Barnyardgrass [2, 18]: 50
Plant response rating, Barnyardgrass [2, 19]: 0
Barnyardgrass plant response rating [2, 20]: 10
Cocklebur plant response rating [3, 21]: 90
Plant response rating, Cocklebur [3, 18]: 100
Plant response rating, Cocklebur [3, 19]: 10
Cocklebur plant response rating [3, 20]: 80
Corn plant response rating [4, 21]: 30
Plant response rating, Corn [4, 18]: 70
Plant response rating, Corn [4, 19]: 0
Corn plant response rating [4, 20]: 0
Crabgrass plant response rating [5, 21]: 70
Plant response rating, Crabgrass [5, 18]: 80
Plant response rating, Crabgrass [5, 19]: 40
Crabgrass plant response rating [5, 20]: 80
Plant response rating, Foxtail, Giant [6, 19]: 20
Foxtail, Giant plant response rating [6, 20]: 40
Lambsquarters plant response rating [7, 21]: 90
Plant response rating, Lambsquarters [7, 18]: 90
Lambsquarters plant response rating [7, 20]: 60
Morningglory plant response rating [8, 21]: 80
Plant response rating, Morningglory [8, 18]: 100
Plant response rating, Morningglory [8, 19]: 10
Morningglory plant response rating [8, 20]: 40
Pigweed plant response rating [9, 21]: 80
Plant response rating, Pigweed [9, 18]: 90
Plant response rating, Pigweed [9, 19]: 70
Pigweed plant response rating [9, 20]: 80
Velvetleaf plant response rating [10, 21]: 80
Plant response rating, Velvetleaf [10, 18]: 90
Plant response rating, Velvetleaf [10, 19]: 30
Velvetleaf plant response rating [10, 20]: 80
Wheat plant response rating [11, 21]: 0
Plant response rating, Wheat [11, 18]: 30
Plant response rating, Wheat [11, 19]: 30
Plant response rating, Wheat [11, 20]: 60
Blackgrass plant response rating [12]: 30
Plant response rating, Blackgrass [12]: 40
Oat, Wild plant response rating [13]: 0
Plant response rating, Oat, Wild [13]: 0
Plant response rating, Barnyardgrass [14]: 0
Plant response rating, Ducksalad [15]: 90
Plant response rating, Rice [16]: 0
Plant response rating, Sedge, Umbrella [17]: 80

CCOC(=O)c1nc(-c2ccc(Cl)cc2)nc(N)c1Br [Compound 37]
Surinam Grass plant response rating [1, 21]: 20
Plant response rating, Surinam Grass [1, 18]: 70
Surinam Grass plant response rating [1, 20]: 40
Barnyardgrass plant response rating [2, 21]: 0
Plant response rating, Barnyardgrass [2, 18]: 90
Plant response rating, Barnyardgrass [2, 19]: 10
Barnyardgrass plant response rating [2, 20]: 40
Cocklebur plant response rating [3, 21]: 100
Plant response rating, Cocklebur [3, 18]: 100
Plant response rating, Cocklebur [3, 19]: 20
Cocklebur plant response rating [3, 20]: 80
Corn plant response rating [4, 21]: 0
Plant response rating, Corn [4, 18]: 70
Plant response rating, Corn [4, 19]: 0
Corn plant response rating [4, 20]: 10
Crabgrass plant response rating [5, 21]: 60
Plant response rating, Crabgrass [5, 18]: 80
Plant response rating, Crabgrass [5, 19]: 50
Crabgrass plant response rating [5, 20]: 90
Foxtail, Giant plant response rating [6, 21]: 10
Plant response rating, Foxtail, Giant [6, 18]: 60
Plant response rating, Foxtail, Giant [6, 19]: 10
Foxtail, Giant plant response rating [6, 20]: 60
Lambsquarters plant response rating [7, 21]: 100
Plant response rating, Lambsquarters [7, 18]: 100
Plant response rating, Lambsquarters [7, 19]: 100
Lambsquarters plant response rating [7, 20]: 100
Morningglory plant response rating [8, 21]: 90
Plant response rating, Morningglory [8, 18]: 100
Plant response rating, Morningglory [8, 19]: 10
Morningglory plant response rating [8, 20]: 50
Pigweed plant response rating [9, 21]: 100
Plant response rating, Pigweed [9, 18]: 100
Plant response rating, Pigweed [9, 19]: 100
Pigweed plant response rating [9, 20]: 100
Velvetleaf plant response rating [10, 21]: 80
Plant response rating, Velvetleaf [10, 18]: 100
Plant response rating, Velvetleaf [10, 19]: 40
Velvetleaf plant response rating [10, 20]: 80
Wheat plant response rating [11, 21]: 0
Plant response rating, Wheat [11, 18]: 60
Plant response rating, Wheat [11, 19]: 30
Plant response rating, Wheat [11, 20]: 60
Blackgrass plant response rating [12]: 40
Plant response rating, Blackgrass [12]: 60
Oat, Wild plant response rating [13]: 0
Plant response rating, Oat, Wild [13]: 0
Plant response rating, Barnyardgrass [14]: 20
Plant response rating, Ducksalad [15]: 100
Plant response rating, Rice [16]: 0
Plant response rating, Sedge, Umbrella [17]: 90

CN(C)N=Cc1nc(C2CC2)nc(N)c1Br [Compound 50]
Surinam Grass plant response rating [1, 21]: 20
Plant response rating, Surinam Grass [1, 18]: 60
Plant response rating, Surinam Grass [1, 19]: 20
Plant response rating, Surinam Grass [1, 20]: 70
Barnyardgrass plant response rating [2, 21]: 10
Plant response rating, Barnyardgrass [2, 18]: 50
Plant response rating, Barnyardgrass [2, 19]: 30
Plant response rating, Barnyardgrass [2, 20]: 50
Cocklebur plant response rating [3, 21]: 90
Plant response rating, Cocklebur [3, 18]: 90
Plant response rating, Cocklebur [3, 19]: 80
Plant response rating, Cocklebur [3, 20]: 90
Corn plant response rating [4, 21]: 0
Plant response rating, Corn [4, 18]: 40
Plant response rating, Corn [4, 19]: 20
Plant response rating, Corn [4, 20]: 20
Crabgrass plant response rating [5, 21]: 40
Plant response rating, Crabgrass [5, 18]: 80
Plant response rating, Crabgrass [5, 19]: 50
Plant response rating, Crabgrass [5, 20]: 80
Foxtail, Giant plant response rating [6, 21]: 20
Plant response rating, Foxtail, Giant [6, 18]: 70
Plant response rating, Foxtail, Giant [6, 19]: 10
Plant response rating, Foxtail, Giant [6, 20]: 40
Lambsquarters plant response rating [7, 21]: 80
Plant response rating, Lambsquarters [7, 18]: 90
Plant response rating, Lambsquarters [7, 19]: 90
Plant response rating, Lambsquarters [7, 20]: 100
Morningglory plant response rating [8, 21]: 90
Plant response rating, Morningglory [8, 18]: 90
Plant response rating, Morningglory [8, 19]: 80
Plant response rating, Morningglory [8, 20]: 90
Pigweed plant response rating [9, 21]: 80
Plant response rating, Pigweed [9, 18]: 90
Plant response rating, Pigweed [9, 19]: 70
Plant response rating, Pigweed [9, 20]: 90
Velvetleaf plant response rating [10, 21]: 70
Plant response rating, Velvetleaf [10, 18]: 90
Plant response rating, Velvetleaf [10, 19]: 80
Plant response rating, Velvetleaf [10, 20]: 90
Wheat plant response rating [11, 21]: 30
Plant response rating, Wheat [11, 18]: 60
Plant response rating, Wheat [11, 19]: 20
Plant response rating, Wheat [11, 20]: 40
Blackgrass plant response rating [12]: 30
Plant response rating, Blackgrass [12]: 50
Oat, Wild plant response rating [13]: 30
Plant response rating, Oat, Wild [13]: 60
Plant response rating, Barnyardgrass [14]: 30
Plant response rating, Ducksalad [15]: 40
Plant response rating, Rice [16]: 30
Plant response rating, Sedge, Umbrella [17]: 0
